Source: patent US4485088A, “Method of treatment of fibrotic lesions by topical administration of lathyrogenic drugs” (Bio-Products, Inc., priority 1982, dated 1984)
Entries after “also recorded” stand apart in the source; their conditions may differ. Structures can show the parent of a compound that is named as a salt. Where two headings read alike, the source gives them in different places.

Columns and labels:
[1] = Skin penetration of BAPN base versus BAPN fumarate; format: in vitro ADME; conditions: BAPN base vs BAPN fumarate
[2] = Storage stability of BAPN base; format: physicochemical
[3] = test system: collagen; conditions: cited from earlier work
[4] = Topical cytotoxicity of BAPN; format: in vivo
Description: Although the pathogenesis of the above disorders may differ, in every one it was postulated that the physical properties of the scar tissue were affected by abnormal cross-linking of the collagenous component. A variety of methods was proposed and used to alleviate the problems of abnormal reactivity of polymerized scar tissue (Peacock and Van Winkle 1976). […] The ideal method of topical administration would be the noninvasive percutaneous resorption of BAPN painted onto the skin as proposed in this disclosure. […] These findings assured me that topical BAPN is safe, effective and optimal therapeutic regimen to achieve significant interference with maturation of collagenous structure in tissues with an injury.

[5] = test system: scleroderma; conditions: cited from earlier work
[6] = test system: human collagen; conditions: in vivo; cited from earlier work
[7] = Recovery from urine after administration on skin through hydrophilic bag container (Example 2); format: in vivo, rats
Experimental: The experimental conditions were similar to those of Example 1 for Group 6. A 0.4 ml solution of 1.1M β-aminopropionitrile fumarate containing 200 mg/ml and 2 μCi of the same ^14 C labeled substance was placed into a hydrophilic bag membrane. This membrane contained 80% water. The container bag was placed onto the shaved skin area of 4 cm^2, covered with impermeable occlusive dressing represented by Blenderm surgical tape (3M, Minnesota). The rats were placed in metabolic cages and at defined time intervals, the urine was collected and the amount of radioactive drug determined.
Time indicates the urine sampling period. Recovery is given in percent of the dose administered into the hydrophilic bag.

[8] = test system: lysyl oxidase; assay: Lysyl oxidase activity in granuloma tissue after topical application (Example 4); format: in vivo, rats, Sprague-Dawley
Experimental: Two groups of rats, four rats in each group, 250 g body weight, Sprague-Dawley males, were implanted subcutaneously with a polyvinylalcohol sponge (Ivalon, Unipoint Labs, New Jersey) in the dorsal region through an incision distal from the placement of the sponge.
A solution of 0.1 ml of β-aminopropionitrile (200 mg BAPN/ml) was applied every 12 hours onto the skin over the implanted sponge for a total of seven days. Then the rats were sacrificed, reactive granuloma tissue excised and used for the determination of the activity of lysyl oxidase.
There were four rats in each group.
Variability is given by standard deviation.
Significance of the results tested by Student's t-test.

[9] = systemic, rats; cited from earlier work
[10] = test system: lysyl oxidase; conditions: single systemic moderate dose; cited from earlier work
[11] = systemic, dogs; cited from earlier work
[12] = test system: lysyl oxidase; conditions: cited from earlier work
[13] = Work of flexion of tenolyzed flexor profundus tendon (Example 5); format: in vivo, White Leghorn chickens
Description: will document the therapeutic effectiveness of direct infusions of β-aminopropionitrile fumarate solution into the dissected peritendinous adhesions in a rooster model of tendon injury.
Adult White Leghorn chickens were sedated with Pentothal, fixed to the operating table and given metacarpal local anesthesia with 1% xylocaine. Following surgical prep of the foot, a tourniquet was applied. Through a mid-lateral incision the sublimus tendon was removed from the long digit of both feet and a 4-0 braided stainless steel wire was passed through the entire length of the remaining profundus tendon to promote injury to the tendon by "scarification". The incision was closed with a continuous nylon suture, 4-0. Both feet were then incorporated in a plaster of Paris dressing with the feet in a functional position permitting the animals to walk while in the plaster.
Three weeks later the animals were prepared for surgery as above and the original incision was opened. A complete tenolysis was performed freeing the profundus tendon from surrounding fibrotic adhesions. […]
After 5 days of BAPN application the animals were sacrificed, the plaster dressings removed, and the legs amputated. […] The leg was then mounted in an Instron Tensiometer and measured traction was applied to the flexor profundus tendon at a rate of 2.5 cm/min while the flexion of the three digital joints was measured. […]

[14] = Percutaneous absorption of BAPN-fumarate, drug recovery in urine (Example 1); format: in vivo, rats, Sprague Dawley
Experimental: Adult rats, Sprague Dawley strain, were shaved on the dorsum. A 0.1 ml solution of 0.16M β-aminopropionitrile fumarate, containing 30 mg BAPN/ml of phosphate buffer (0.1M, pH 7.2) and for easy detection 2 μCi of ^14 C-β-aminopropionitrile fumarate was painted on the shaved skin area 2×2 cm of a rat. In another rat, the shaved skin was washed first with 2% Ivory soap, in the next group the skin area after painting was covered with occlusive bandage. In another group of rats (Table 1) the drug was administered onto the skin the drug in 60% dimethyl sulfoxide, a solvent known to increase percutaneous absorption. Finally, in the last group (Table 1), the basic solution was administered into a small container made of a hydrogel polymer. This hydrogel is characterized by containing 80% water. It makes good contact with the skin, allows penetration of the drug through the container wall, hydrates the skin under the occlusive dressing, thus enhancing the percutaneous transport.
^14 C--BAPNfumarate, 2 μCi in 30 mg BAPNfumarate/ml, 0.1 ml
*% recovered in 24 hours

[15] = Acute toxicity, LD50 (Example 3); design: species or system CD-1 mice; conditions: mouse, in vivo, 24-hour observation
Experimental: The determination of lethal dose, killing within a certain time after the administration of the tested drug 50% of the exposed animals, is a standard method of evaluation of the toxicity of a drug.
A total of 40 male CD-1 mice with a body weight of 20 g were injected either intraperitoneally with β-aminopropionitrile fumarate or the drug was applied in a solution onto the shaved dorsal aspect of the skin. Four dosage levels spaced in geometric progression were evaluated using five animals for each dose.

[16] = test system: collagen; conditions: cited from earlier work; remark: listed apart in the source
[17] = test system: monoamine oxidase (MAO); conditions: cited from earlier work
[18] = test system: lysyl oxidase; conditions: isoniazid with BAPN; cited from earlier work

N#CCCN [BAPN base]
Skin penetration relative to BAPN fumarate [1]: approximately five times faster
Skin penetration relative to BAPN fumarate ([1]; listed as BAPN-base): higher penetration
Stability under storage [2]: unstable under storage, undergoing hydrolysis forming ammonia and toxic acrylonitrile

N#CCCN [BAPN, β-aminopropionitrile]
General toxicity at lathyrogenic dosages ([3]; systemic, animals): the animals stop growing, lose body weight and lower their food intake
Blocking the polymerization of collagen ([3]; various animal models of fibrotic lesion): very effective
Topical cytotoxicity, morphological or ultrastructural [4]: no morphological or ultrastructural evidence of topical cytotoxicity is found
Toxic side effects, short-term treatment ([5]; 2 g/day, short-term): no toxic side effects were noted
Adverse reactions, longer courses ([5]; longer courses of treatment): prohibitive reactions, such as allergic skin rash and hemolytic anemia
Covalent bonding of human collagen / clinical benefit [6]: decreased covalent bonding of human collagen with significant clinical benefit was demonstrated
Hypersensitivity [6]: a significant number of the patients exhibited hypersensitivity to the agent
Recovery in Urine (In % of the Total Dose) ([7]; 4 hours): 0.5%
Recovery in Urine (In % of the Total Dose) ([7]; 8 hours): 1.01%
Recovery in Urine (In % of the Total Dose) ([7]; 12 hours): 2.37%
Recovery in Urine (In % of the Total Dose) ([7]; 24 hours): 5.40%
Recovery in Urine (In % of the Total Dose) ([7]; 72 hours): 9.9%
Recovery in Urine (In % of the Total Dose) ([7]; 96 hours): 15.2%
Recovery in Urine (In % of the Total Dose) ([7]; 120 hours): 22.5%
Inhibition of lysyl oxidase in granuloma tissue ([8]; painted onto skin over implanted sponge): significant inhibition of the enzyme activity in the lesion; also recorded: effectively inhibits lysyl oxidase in granuloma tissue
Side effects [9]: undesirable side effects
Tendon gliding / joint stiffness [9]: significantly improve the tendon gliding fraction or reduce stiffness
Time to recovery of lysyl oxidase activity in granuloma tissue [10]: 6 to 12 h
Side effects [11]: undesirable side effects
Tendon gliding / joint stiffness [11]: significantly improve the tendon gliding fraction or reduce stiffness
Concentration inhibiting lysyl oxidase [12]: 10^-7 M
Effectiveness as lathyrogenic agent on lysyl oxidase [12]: the most effective
Reversibility of lysyl oxidase inhibition [12]: irreversible

N#CCCN [BAPN-fumarate, β-aminopropionitrile fumarate]
Release / penetration over time ([7]; 120 hours of observation): continuous at the constant rate
Tendon gliding ([13]; topical infusion): glided more easily; much lower force was needed to flex the finger
Work of Flexion (Mean) ([13]; topical infusion every 12 hours for 5 days, 300 mg/ml, SD 4.25, saline control 44.8 (SD 9.9), P < 0.01): 13.10 gm/degree
Lysyl Oxidase Activity in the granuloma tissue ([8]; topical, 0.1 ml of 200 mg/ml every 12 hours for seven days, control 36.2 ± 7.1, P < 0.001, standard deviation): 1.8 ± 0.3 DPM/mg protein
Increase of delivery, Group 6 compared with Group 1 ([14]; hydrophilic container with occlusive dressing vs phosphate buffer on intact skin): ~40 times
Drug Recovery in the Urine, % Recovered in 6 hours ([14]; in phosphate buffer in 60% DMSO): 11.66%
Drug Recovery in the Urine, % Recovered in 6 hours ([14]; in phosphate buffer in 60% DMSO, skin washed in 2% Ivory soap): 10.10%
Drug Recovery in the Urine, % Recovered in 6 hours ([14]; in phosphate buffer on intact skin): 0.97%
Drug Recovery in the Urine, % Recovered in 6 hours ([14]; in phosphate buffer, skin washed with 2% Ivory soap): 2.17%
Drug Recovery in the Urine, % Recovered in 6 hours ([14]; in phosphate buffer, skin washed with 2% Ivory soap, occlusive bandage): 10.56%
Drug Recovery in the Urine, % recovered in 24 hours ([14]; in phosphate buffer, skin washed with 2% Ivory soap, hydrophilic container, occlusive bandage, 24 hours): 35.00%
LD50 at 24 h ([15]; ip, intraperitoneally): 3000 mg/kg
LD50 at 24 h ([15]; topical or ocular, percutaneously): 23100 mg/kg

CC(C)(S)[C@@H](N)C(=O)O [D-penicillamine]
Changes in metal content in tissues and fluids ([16]; after treatment): Striking changes in the metal content in various tissues and fluids
Acute hypersensitivity reactions ([16]; clinical studies, systemic): high incidence of acute hypersensitivity reactions
Decrease of structural stability of collagen ([16]; systemic): well-documented
Direct inhibition of lysyl oxidase [12]: direct inhibition of lysyl oxidase by D-penicillamine was demonstrated

N#CCN [aminoacetonitrile]
Effectiveness as lathyrogenic agent on lysyl oxidase [12]: the most effective

NNC(=O)c1ccncc1 [isoniazid]
Monoamine oxidase (MAO) inhibition [17]: weak lysyl oxidase and MAO inhibitor
Lathyritic effect of BAPN in combination [18]: potentiate the lathyritic effects of BAPN
Lysyl oxidase inhibition [12]: weak lysyl oxidase and MAO inhibitor

C#CCN(C)Cc1ccccc1 [pargyline]
Monoamine oxidase (MAO) inhibition [17]: monoamine oxidase (MAO) inhibitor
